{
  "source": "patent US10500249B2",
  "about": "“Compositions and methods for preventing or treating diseases, conditions, or processes characterized by aberrant fibroblast proliferation and extracellular matrix deposition” (MOERAE MATRIX, INC., priority 2014, dated 2019)",
  "key": {"[1]": {"test_system": "bleomycin-induced lung fibrosis", "experiment": "Bleomycin mouse model of pulmonary fibrosis (prevention model)", "format": "in vivo, C57BL/6 mice", "conditions": "25, 50 or 75 μg/kg daily IP, day 7 through day 21", "description": "A mouse model of pulmonary fibrosis was generated by administering 0.025 U of bleomycin/PBS intratracheally to C57BL/6 mice. […] At 21 day post bleomycin delivery (for prevention model) or 28 post bleomycin delivery (for treatment model), groups of mice were sacrificed with a sodium pentobarbital injection (120 mg/kg) and the chest cavity was opened. The right mainstem bronchus was ligated and the right lung was removed. The trachea was cannulated and the left lung was perfused with 4% formaldehyde at 21 cm H2O pressure. The tissue blocks then were embedded in paraffin, and […] sections were prepared for staining. Sections from each animal were stained with hematoxylin and eosin (H&E) to visualize cells or with Masson's Trichrome staining to highlight collagen deposition. […] Stained sections were mounted onto a labeled glass slide with organic mounting medium.\nBriefly, fibrotic loci in the lungs of the mice were induced by delivering intratracheally about 0.025 U of bleomycin (dissolved in PBS) to C57BL/6 mice. […] Briefly, mice were sacrificed with a sodium pentobarbital injection (120 mg/kg) and the chest cavity was opened. The right mainstem bronchus was ligated and the right lung was removed. The trachea was cannulated and the left lung was perfused with 4% formaldehyde at 21 cm H2O pressure. The tissue blocks then were embedded in paraffin, and […] sections were prepared, and stained with hematoxylin and eosin (H&E; for pathological examination) or Masson's Trichrome (for collagen staining)\nNext, total collagen levels in the lungs of the bleomycin-injured mice (FIG. 12) were analyzed quantitatively by computing a constant conversion factor (7.5) for collagen from hydroxyproline concentrations (Neuman R. and Logan M, J Biol Chem., 186(2):549-56, 1950, incorporated by reference).\nNext, the effect of increasing doses of MK2 peptide inhibitors on collagen deposition was examined in vivo using the bleomycin mouse model of idiopathic pulmonary fibrosis (prevention model). Briefly, C57-BL/6 mice were subjected to bleomycin injury at day 0."}, "[2]": {"test_system": "human fetal lung fibroblasts (IMR-90), α-SMA", "experiment": "TGF-β-induced myofibroblast activation, α-SMA immunoblot", "format": "cell-based", "conditions": "1 h pre-treatment, then TGF-β1 (2 ng/ml) 48 h", "excerpt": "Cell lysates were immunoblotted against antibodies for α-SMA (a marker for myofibroblast activation) and GAPDH (loading control)."}},
  "data": [
    {"sequence": "YARAAARQARAKALNRQLGVA (Mammalian) [MMI-0200]", "values": [
      {"measurement": "collagen levels in the lung (Masson's blue trichrome staining), dose response", "setting": "[1]", "result": "did not reduce, but rather increased the collagen deposition"},
      {"measurement": "protein level of α-smooth muscle actin (α-SMA)", "setting": "[2]", "result": "no changes in the protein level"}
    ]}
  ]
}
